Key:
Format in all cases: in vivo
[1] = system: velvetleaf (Abutilon theophrasti); experiment: Test G Post-Emergence Protocol; details: Abutilon theophrasti, post-emergence, 312 h, read-out: Velvetleaf damage rating
In short: (§1)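 Sow in soil; grow 8 d (24/16 °C, 14 h light, 65% humidity); spray 15.625/62.5/250 g/ha in acetone:water 50:50 + 0.5% Tween 20; grow on, water twice daily; score damage 0–100 at 13 d.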

[2] = system: redroot pigweed (Amaranthus retroflexus); experiment: Test G Post-Emergence Protocol; details: Amaranthus retroflexus, post-emergence, 312 h, read-out: Pigweed, Redroot damage rating
In short: as §1

[3] = system: ivy-leaved morning glory (Ipomoea hederacea); experiment: Test G Post-Emergence Protocol; details: Ipomoea, post-emergence, 312 h, read-out: Morningglory, Ivy-leaved damage rating
In short: as §1

[4] = system: barnyardgrass (Echinochloa crus-galli); experiment: Test G Post-Emergence Protocol; details: Echinochloa crus-galli, post-emergence, 312 h, read-out: Barnyardgrass damage rating
In short: as §1

[5] = system: corn (Zea mays); experiment: Test G Post-Emergence Protocol; details: Zea mays, post-emergence, 312 h, read-out: Corn damage rating
In short: as §1

[6] = system: giant foxtail (Setaria faberi); experiment: Test G Post-Emergence Protocol; details: Setaria faberi, post-emergence, 312 h, read-out: Foxtail, Giant damage rating
In short: as §1

[7] = system: velvetleaf (Abutilon theophrasti); experiment: Test G Pre-Emergence Protocol; details: Abutilon theophrasti, pre-emergence, 312 h, evaluated after 13 days
In short: (§2)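 Test compound in 0.5% Tween 20 acetone/water (50:50) was applied at three rates (15.625, 62.5, 250 g/ha) to soil sown one day earlier. After 13 days plants were scored for injury, where 0 means unaffected and 100 means completely damaged.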

[8] = system: redroot pigweed (Amaranthus retroflexus); experiment: Test G Pre-Emergence Protocol; details: Amaranthus retroflexus, pre-emergence, 312 h, evaluated after 13 days
In short: as §2

[9] = system: ivy-leaved morning glory (Ipomoea hederacea); experiment: Test G Pre-Emergence Protocol; details: Ipomoea, pre-emergence, 312 h, evaluated after 13 days
In short: as §2

[10] = system: barnyardgrass (Echinochloa crus-galli); experiment: Test G Pre-Emergence Protocol; details: Echinochloa crus-galli, pre-emergence, 312 h, evaluated after 13 days
In short: as §2

[11] = system: corn (Zea mays); experiment: Test G Pre-Emergence Protocol; details: Zea mays, pre-emergence, 312 h, evaluated after 13 days
In short: as §2

[12] = system: giant foxtail (Setaria faberi); experiment: Test G Pre-Emergence Protocol; details: Setaria faberi, pre-emergence, 312 h, evaluated after 13 days
In short: as §2

[13] = 15.625 g ai/ha, evaluated after 13 days (100=total damage to plant; 0=no damage to plant)
[14] = 62.5 g ai/ha, evaluated after 13 days, 100=total damage to plant, 0=no damage to plant
[15] = 250 g ai/ha, evaluated after 13 days, 100=total damage to plant, 0=no damage to plant

`CN1C[C@H](c2ccc(Cl)cc2)[C@@H](C(=O)Nc2cnccc2C(F)(F)F)C1=O` [Compound 1812] was tested, and the pest or weed control at 15.625 g/ha [1, 13] was 0%, the pest or weed control at 62.5 g/ha [1, 14] was 10% and the pest or weed control at 250 g/ha [1, 15] was 60%. The pest or weed control at 15.625 g/ha [2, 13] was 0%, the pest or weed control at 62.5 g/ha [2, 14] was 20% and the pest or weed control at 250 g/ha [2, 15] was 50%. The pest or weed control at 15.625 g/ha [3, 13] was 0%, the pest or weed control at 62.5 g/ha [3, 14] was 50% and the pest or weed control at 250 g/ha [3, 15] was 70%. It also gave a pest or weed control at 15.625 g/ha [4, 13] of 0%, a pest or weed control at 62.5 g/ha [4, 14] of 0% and a pest or weed control at 250 g/ha [4, 15] of 70%. The plant injury at 15.625 g/ha [5, 13] was 0%, the plant injury at 62.5 g/ha [5, 14] was 0% and the plant injury at 250 g/ha [5, 15] was 50%. The pest or weed control at 15.625 g/ha [6, 13] was 0%, the pest or weed control at 62.5 g/ha [6, 14] was 80% and the pest or weed control at 250 g/ha [6, 15] was 80%. The pest or weed control at 15.625 g/ha ([7]; 15.625 g ai/ha, read-out: Velvetleaf damage rating (100=total damage to plant; 0=no damage to plant)) was 0%, the pest or weed control at 62.5 g/ha ([7]; 62.5 g ai/ha, 100=total damage to plant, 0=no damage to plant, read-out: Velvetleaf damage rating) was 40% and the pest or weed control at 250 g/ha ([7]; 250 g ai/ha, read-out: Velvetleaf damage rating (100=total damage to plant; 0=no damage to plant)) was 80%. For the same compound, the pest or weed control at 15.625 g/ha ([8]; 15.625 g ai/ha, read-out: Pigweed, Redroot damage rating (100=total damage to plant; 0=no damage to plant)) was 0%, the pest or weed control at 62.5 g/ha ([8]; 62.5 g ai/ha, 100=total damage to plant, 0=no damage to plant, read-out: Pigweed, Redroot damage rating) was 20% and the pest or weed control at 250 g/ha ([8]; 250 g ai/ha, read-out: Pigweed, Redroot damage rating (100=total damage to plant; 0=no damage to plant)) was 70%. For the same compound, the pest or weed control at 15.625 g/ha ([9]; 15.625 g ai/ha, read-out: Morningglory, Ivy-leaved damage rating (100=total damage to plant; 0=no damage to plant)) was 0%, the pest or weed control at 62.5 g/ha ([9]; 62.5 g ai/ha, 100=total damage to plant, 0=no damage to plant, read-out: Morningglory, Ivy-leaved damage rating) was 0% and the pest or weed control at 250 g/ha ([9]; 250 g ai/ha, read-out: Morningglory, Ivy-leaved damage rating (100=total damage to plant; 0=no damage to plant)) was 40%. It also gave a pest or weed control at 15.625 g/ha ([10]; 15.625 g ai/ha, read-out: Barnyardgrass damage rating (100=total damage to plant; 0=no damage to plant)) of 0%, a pest or weed control at 62.5 g/ha ([10]; 62.5 g ai/ha, 100=total damage to plant, 0=no damage to plant, read-out: Barnyardgrass damage rating) of 0% and a pest or weed control at 250 g/ha ([10]; 250 g ai/ha, read-out: Barnyardgrass damage rating (100=total damage to plant; 0=no damage to plant)) of 70%. It also gave a plant injury at 15.625 g/ha ([11]; 15.625 g ai/ha, read-out: Corn damage rating (100=total damage to plant; 0=no damage to plant)) of 0%, a plant injury at 62.5 g/ha ([11]; 62.5 g ai/ha, 100=total damage to plant, 0=no damage to plant, read-out: Corn damage rating) of 0% and a plant injury at 250 g/ha ([11]; 250 g ai/ha, read-out: Corn damage rating (100=total damage to plant; 0=no damage to plant)) of 40%. For the same compound, the pest or weed control at 15.625 g/ha ([12]; 15.625 g ai/ha, read-out: Foxtail, Giant damage rating (100=total damage to plant; 0=no damage to plant)) was 90%, the pest or weed control at 62.5 g/ha ([12]; 62.5 g ai/ha, 100=total damage to plant, 0=no damage to plant, read-out: Foxtail, Giant damage rating) was 90% and the pest or weed control at 250 g/ha ([12]; 250 g ai/ha, read-out: Foxtail, Giant damage rating (100=total damage to plant; 0=no damage to plant)) was 90%.

— patent US12077503B2, “Substituted cyclic amides and their use as herbicides” (FMC CORPORATION, priority 2015, dated 2024)
